Nine compounds from ChEMBL document CHEMBL1201862, “PubChem BioAssay data set” (2004) can be followed below.

Active and inactive are the calls of the source.

The target of assay [1] is T1, Eukaryotic translation initiation factor 2-alpha kinase 3 (Homo sapiens, UniProt Q9NZJ5).
T1 sequence (Q9NZJ5 whole entry): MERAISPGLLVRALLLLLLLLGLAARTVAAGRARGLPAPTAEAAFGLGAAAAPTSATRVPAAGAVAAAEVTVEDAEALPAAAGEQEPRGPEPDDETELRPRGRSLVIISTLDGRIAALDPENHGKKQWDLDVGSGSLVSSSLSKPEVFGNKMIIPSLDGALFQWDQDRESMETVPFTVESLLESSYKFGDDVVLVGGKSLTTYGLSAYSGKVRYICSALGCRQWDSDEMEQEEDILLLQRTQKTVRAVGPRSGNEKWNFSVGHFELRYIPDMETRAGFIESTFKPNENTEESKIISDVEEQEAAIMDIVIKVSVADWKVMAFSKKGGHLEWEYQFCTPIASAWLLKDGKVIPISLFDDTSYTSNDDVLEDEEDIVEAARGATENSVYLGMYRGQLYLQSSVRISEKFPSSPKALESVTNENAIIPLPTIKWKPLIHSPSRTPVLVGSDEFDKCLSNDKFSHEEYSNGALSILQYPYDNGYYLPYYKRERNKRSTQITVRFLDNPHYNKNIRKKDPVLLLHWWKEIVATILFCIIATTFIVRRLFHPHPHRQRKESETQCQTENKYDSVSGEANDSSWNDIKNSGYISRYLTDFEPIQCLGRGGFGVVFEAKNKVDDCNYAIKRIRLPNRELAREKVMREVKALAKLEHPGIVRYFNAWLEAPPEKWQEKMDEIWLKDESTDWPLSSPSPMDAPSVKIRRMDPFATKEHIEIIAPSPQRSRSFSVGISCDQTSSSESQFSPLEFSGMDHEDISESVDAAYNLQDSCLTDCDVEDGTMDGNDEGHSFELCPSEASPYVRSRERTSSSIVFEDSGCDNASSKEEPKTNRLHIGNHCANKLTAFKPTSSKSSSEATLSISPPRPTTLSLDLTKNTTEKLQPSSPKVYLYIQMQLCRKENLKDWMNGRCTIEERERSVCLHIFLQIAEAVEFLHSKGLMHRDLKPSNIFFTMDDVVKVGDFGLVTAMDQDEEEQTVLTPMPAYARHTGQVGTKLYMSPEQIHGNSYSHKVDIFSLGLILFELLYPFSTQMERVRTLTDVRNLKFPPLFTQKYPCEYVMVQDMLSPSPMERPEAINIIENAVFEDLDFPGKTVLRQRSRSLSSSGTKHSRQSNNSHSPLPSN
Briefly: Dose response cell-based high-throughput screening assay to measure PERK inhibition. [Related pubchem assays: 1416 ]. Format: functional.

For assay [2], the target named is T2, Heat shock factor protein 1 (Mus musculus, UniProt P38532).
T2 sequence (P38532 whole entry): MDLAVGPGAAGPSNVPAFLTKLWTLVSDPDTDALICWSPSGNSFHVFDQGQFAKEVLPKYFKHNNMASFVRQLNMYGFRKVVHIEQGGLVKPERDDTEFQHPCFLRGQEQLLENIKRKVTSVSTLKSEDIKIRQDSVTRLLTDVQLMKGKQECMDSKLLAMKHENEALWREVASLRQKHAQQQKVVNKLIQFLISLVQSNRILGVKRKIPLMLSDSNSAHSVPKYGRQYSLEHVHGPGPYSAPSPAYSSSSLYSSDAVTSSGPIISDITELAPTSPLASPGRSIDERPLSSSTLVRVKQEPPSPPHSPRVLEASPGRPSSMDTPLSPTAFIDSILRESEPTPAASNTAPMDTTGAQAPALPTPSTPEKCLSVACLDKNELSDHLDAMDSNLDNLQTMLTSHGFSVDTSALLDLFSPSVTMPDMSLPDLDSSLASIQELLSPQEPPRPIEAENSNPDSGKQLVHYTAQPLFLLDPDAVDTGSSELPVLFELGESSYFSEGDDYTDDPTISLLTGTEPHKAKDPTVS
Briefly: decrease of HSF1-responsive luciferase luminescence – cell-based, NIH3T3, dose retest, confirmation (AID 2382).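 Further: NIH3T3 fibroblasts with HSF1-driven luciferase reporter stressed by proteasome inhibitor MG132; luminescence from HSF1-driven luciferase expression after 8 hours of MG132 stress.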 Format: functional.

Assay [3] concerns the target T1, Eukaryotic translation initiation factor 2-alpha kinase 3. Briefly: Counterscreen assay for PERK inhibitors: Dose response cell-based high throughput screening assay to measure inhibition of PERK at 6 hours. [Related pubchem assays: 1522, 1416 ]. Format: functional.
For assay [4], the target named is Polyadenylate-binding protein 1 (Homo sapiens, UniProt P11940). In words: blockers of PABP interaction with poly(A) – biochemical, fluorescence polarization, […] (AID 2014). (Polarisation of emitted light reports the rotation of a fluorescent probe.)
Polyadenylate-binding protein 1, sequence (P11940 whole entry): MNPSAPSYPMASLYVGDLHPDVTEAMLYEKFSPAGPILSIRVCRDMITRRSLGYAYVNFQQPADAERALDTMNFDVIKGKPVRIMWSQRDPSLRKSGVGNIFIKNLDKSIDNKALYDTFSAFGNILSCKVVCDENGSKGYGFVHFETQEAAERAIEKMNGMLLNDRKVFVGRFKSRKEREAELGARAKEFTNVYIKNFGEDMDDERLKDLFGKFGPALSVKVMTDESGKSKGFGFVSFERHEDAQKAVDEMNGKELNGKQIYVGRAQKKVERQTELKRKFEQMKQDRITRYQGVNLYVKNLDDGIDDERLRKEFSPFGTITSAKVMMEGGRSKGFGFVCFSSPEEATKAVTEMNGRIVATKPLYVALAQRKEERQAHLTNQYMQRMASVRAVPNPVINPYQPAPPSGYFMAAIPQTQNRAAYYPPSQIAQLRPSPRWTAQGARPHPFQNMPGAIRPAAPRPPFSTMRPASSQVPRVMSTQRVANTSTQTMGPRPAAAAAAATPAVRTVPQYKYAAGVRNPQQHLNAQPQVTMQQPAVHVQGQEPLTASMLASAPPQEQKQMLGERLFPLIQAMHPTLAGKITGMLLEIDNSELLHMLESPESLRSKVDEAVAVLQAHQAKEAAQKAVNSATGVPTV
The target of assay [5] is Eukaryotic translation initiation factor 4H (Homo sapiens, UniProt Q15056). Briefly: eIF4H binding inhibition – biochemical, uHTS, fluorescence polarization, translation initiation inhibitor project, primary screen (AID 2012).
For the next assay, the target named is Bcl-2-like protein 10 (Homo sapiens, UniProt Q9HD36). In words: Bcl-B/TR3 peptide binding disruption – biochemical, fluorescence polarization, FITC-TR3 peptide, selectivity assay for Bfl-1 inhibitor project, primary screen (AID 748).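 Further: fluorescence polarization from a fluorescein-labelled TR3 peptide binding purified Bcl-B.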
Bcl-2-like protein 10, sequence (Q9HD36 whole entry): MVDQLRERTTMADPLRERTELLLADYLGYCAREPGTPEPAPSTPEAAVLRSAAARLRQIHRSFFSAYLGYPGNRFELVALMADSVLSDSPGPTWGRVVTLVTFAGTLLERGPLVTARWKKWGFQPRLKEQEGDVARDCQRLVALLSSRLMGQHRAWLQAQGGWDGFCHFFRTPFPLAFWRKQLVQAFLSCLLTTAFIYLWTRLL
For a further assay, the target named is T3, Coagulation factor XII (Homo sapiens, UniProt P00748).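 Further: activated factor XIIa alpha cleaving a fluorogenic AMC peptide substrate; inhibitor potency from loss of enzyme activity.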
T3 sequence (P00748 whole entry): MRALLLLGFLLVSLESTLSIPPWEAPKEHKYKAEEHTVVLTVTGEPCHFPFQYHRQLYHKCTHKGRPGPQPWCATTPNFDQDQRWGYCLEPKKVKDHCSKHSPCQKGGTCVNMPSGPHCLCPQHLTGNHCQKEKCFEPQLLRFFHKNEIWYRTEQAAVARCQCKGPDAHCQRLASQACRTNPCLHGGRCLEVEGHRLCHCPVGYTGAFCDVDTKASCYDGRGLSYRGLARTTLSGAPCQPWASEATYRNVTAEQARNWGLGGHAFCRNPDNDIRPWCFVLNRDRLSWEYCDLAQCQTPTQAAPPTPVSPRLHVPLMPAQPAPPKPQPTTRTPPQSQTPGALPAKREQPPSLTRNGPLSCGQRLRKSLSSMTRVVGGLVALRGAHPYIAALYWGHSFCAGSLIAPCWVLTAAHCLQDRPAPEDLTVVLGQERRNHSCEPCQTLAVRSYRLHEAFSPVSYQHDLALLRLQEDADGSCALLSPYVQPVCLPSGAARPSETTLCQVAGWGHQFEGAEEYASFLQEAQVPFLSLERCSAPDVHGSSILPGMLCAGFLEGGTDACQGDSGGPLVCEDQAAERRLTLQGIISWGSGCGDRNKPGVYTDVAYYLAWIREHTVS
Format: functional.

Assay [6] is described as follows: NIH3T3 cell viability loss – ATP luminescence, mouse fibroblasts, counter-screen, dose response (AID 2010).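 Further: cells exposed to compound for about 90 hours before reading.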 Format: functional, cell-based. (In general: Counterscreens check selectivity or assay interference.)
The next assay has as its system Escherichia coli. In words: microbe, parasite or virus in culture.
A short description of assay [7]: Vero E6 cell cytotoxicity, dose response, cytotoxicity control for non-replicating M. tuberculosis project, secondary assay (AID 492998). Format: functional, VeroE6. As to conditions: Vero C1008.
Assay [8] can be described thus: THP-1 cell cytotoxicity, dose response, cytotoxicity control for non-replicating M. tuberculosis project (AID 489025). Format: functional.
A short description of a further assay: cells. Format: functional.
Another assay has as its system INS1. Briefly: INS-1E survival protection against cytokine death – cell-based, luminescence, retest, dose response (AID 449756).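 Further: cell death triggered by IL-1 beta plus TNF-alpha plus IFN-gamma mixture; protective hits raise ATP signal compared with cytokine alone wells.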 Format: functional. As to conditions: Rattus norvegicus.
A short description of assay [9]: Trypanosoma cruzi growth suppression in host cells – NIH3T3 host cells, beta-gal luminescence, confirmation (AID 2044).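 Further: intracellular parasites grown in NIH/3T3 mouse fibroblasts as host cells; luminescent beta-galactosidase reporter signal from transgenic T. cruzi replicating inside host cells; inhibitors lower the luminescence signal.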 Format: functional, cell-based.
The target of assay [10] is T4, Microphthalmia-associated transcription factor (Homo sapiens, UniProt O75030).
T4 sequence (O75030 whole entry): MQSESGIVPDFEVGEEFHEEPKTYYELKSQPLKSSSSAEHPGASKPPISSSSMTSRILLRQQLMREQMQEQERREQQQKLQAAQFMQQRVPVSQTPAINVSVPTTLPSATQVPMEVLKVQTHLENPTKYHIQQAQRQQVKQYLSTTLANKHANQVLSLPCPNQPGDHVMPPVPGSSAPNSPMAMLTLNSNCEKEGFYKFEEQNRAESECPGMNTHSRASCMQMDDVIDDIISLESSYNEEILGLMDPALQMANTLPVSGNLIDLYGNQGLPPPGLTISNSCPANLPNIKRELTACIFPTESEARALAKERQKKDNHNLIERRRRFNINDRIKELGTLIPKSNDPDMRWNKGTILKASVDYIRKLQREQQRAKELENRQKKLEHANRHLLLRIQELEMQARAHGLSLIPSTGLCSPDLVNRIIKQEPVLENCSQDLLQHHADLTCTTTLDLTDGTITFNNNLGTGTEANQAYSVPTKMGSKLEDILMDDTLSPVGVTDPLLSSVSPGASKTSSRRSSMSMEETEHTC
Briefly: reducers of TRPM1 reporter luminescence, concentration series – cell-based, SK-MEL-5, cherry-picked, set 3, MITF inhibitor project, dose response (AID 493073).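 Further: SK-MEL-5 melanoma cells with luciferase driven by the MITF target TRPM1 promoter.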 Format: functional.

Assay [11] is described as follows: HepG2 cell cytotoxicity, dose response, cytotoxicity control for non-replicating M. tuberculosis project (AID 489018). Format: functional. As to conditions: Mycobacterium tuberculosis.
Assay [12] has as its target T5, Carboxy-terminal domain RNA polymerase II polypeptide A small phosphatase 1 (Homo sapiens, UniProt Q9GZU7).
T5 sequence (Q9GZU7 whole entry): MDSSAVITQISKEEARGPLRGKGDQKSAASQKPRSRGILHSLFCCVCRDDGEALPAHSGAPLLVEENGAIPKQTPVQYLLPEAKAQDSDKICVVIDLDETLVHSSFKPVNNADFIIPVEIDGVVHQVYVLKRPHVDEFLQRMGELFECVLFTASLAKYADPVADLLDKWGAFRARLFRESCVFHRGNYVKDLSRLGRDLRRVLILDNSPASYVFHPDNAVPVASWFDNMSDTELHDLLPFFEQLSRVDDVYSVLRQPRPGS
Briefly: CTDSP1 inhibitors, concentration-response, biochemical, absorbance readout, ultra-high-throughput screen actives (AID 540297). Format: functional.

Assay [13] is described as follows: Luminescence Cell-Based Dose Response HTS to Identify Inhibitors of 5'UTR Stem-Loop Driven Prion Protein mRNA Translation in H4 Neuroglioblastoma Cells. [Related pubchem assays: 1827 (Project Summary), 1813 (Primary HTS)]. Format: functional.
Assay [14] in a line: HEK-293T viability loss after treatment – luminescence, T-cell screen hits, cytotoxicity control for TCR NF-kB inhibitor project, dose response (AID 489026).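 Further: cells exposed to compound about 14 hours before the viability readout.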 Format: functional, cell-based.
The nature of assay [15]: fluconazole-exposed Candida albicans growth modulators – fluorescence, retest, confirmation (AID 2467). Format: functional, cell-based.
Assay [16] in a line: luciferase reporter signal suppression in cells – H4 neuroglioma cells, luminescence, dose response (AID 1990). Format: functional, cell-based. For orientation: In a reporter assay the amount or activity of a reporter protein is the signal.
Assay [17] in a line: NIH-3T3 fibroblast cytotoxicity, dose response, cytotoxicity control, cell-based, fluorescence, Alamar Blue, secondary assay (AID 2327).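 Further: NIH-3T3 mouse fibroblasts cultured with fluconazole at 8 µg/mL.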 Format: functional.
The nature of assay [18]: alpha-synuclein stem-loop luciferase translation blockers – H4 neuroglioma cells, luminescence, confirmation (AID 1988). Format: functional, cell-based.
Assay [19] addresses T6, SUMO-activating enzyme (Homo sapiens, UniProt Q9UBT2). In words: blockers of SAE1/SAE2–UBC9 SUMO transfer – biochemical, HTRF, uHTS, primary screen (AID 2006). Format: protein-complex assay.
Assay [20] has as its target T6, SUMO-activating enzyme. In words: blockers of UBC9-mediated SUMO conjugation – biochemical, AlphaScreen, SUMOylation inhibitor project, confirmation (AID 2018). Format: functional.
For assay [21], the target named is Acyl-homoserine lactone acylase PvdQ (Pseudomonas aeruginosa (strain LESB58), UniProt Q9I194). In words: PvdQ acylase enzyme activity blockers – biochemical, fluorescence, plate reader and imaging, cherry-picks, dose response (AID 493231).
Acyl-homoserine lactone acylase PvdQ, sequence (Q9I194 24-193 limits assumed): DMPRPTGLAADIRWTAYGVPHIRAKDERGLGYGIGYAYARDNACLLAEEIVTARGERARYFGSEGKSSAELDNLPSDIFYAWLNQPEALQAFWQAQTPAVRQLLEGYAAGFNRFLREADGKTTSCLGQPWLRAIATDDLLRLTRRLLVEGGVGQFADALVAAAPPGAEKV
Acyl-homoserine lactone acylase PvdQ, sequence (Q9I194 217-762 limits assumed): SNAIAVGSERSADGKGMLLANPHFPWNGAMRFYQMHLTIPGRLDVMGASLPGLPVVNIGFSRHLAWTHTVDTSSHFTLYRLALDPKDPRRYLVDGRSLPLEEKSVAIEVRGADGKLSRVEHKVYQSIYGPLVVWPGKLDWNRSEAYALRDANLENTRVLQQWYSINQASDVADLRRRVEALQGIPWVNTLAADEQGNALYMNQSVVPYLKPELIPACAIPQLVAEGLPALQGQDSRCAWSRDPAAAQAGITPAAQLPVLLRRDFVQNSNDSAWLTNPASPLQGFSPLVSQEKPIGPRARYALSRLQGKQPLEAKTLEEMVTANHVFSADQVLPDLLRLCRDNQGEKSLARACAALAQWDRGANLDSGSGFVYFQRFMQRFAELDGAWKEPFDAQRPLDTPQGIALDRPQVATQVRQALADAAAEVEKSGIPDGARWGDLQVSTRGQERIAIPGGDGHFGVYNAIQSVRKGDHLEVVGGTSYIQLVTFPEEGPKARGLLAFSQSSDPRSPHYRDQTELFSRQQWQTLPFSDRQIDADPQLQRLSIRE

T6 sequence (Q9UBE0 whole entry): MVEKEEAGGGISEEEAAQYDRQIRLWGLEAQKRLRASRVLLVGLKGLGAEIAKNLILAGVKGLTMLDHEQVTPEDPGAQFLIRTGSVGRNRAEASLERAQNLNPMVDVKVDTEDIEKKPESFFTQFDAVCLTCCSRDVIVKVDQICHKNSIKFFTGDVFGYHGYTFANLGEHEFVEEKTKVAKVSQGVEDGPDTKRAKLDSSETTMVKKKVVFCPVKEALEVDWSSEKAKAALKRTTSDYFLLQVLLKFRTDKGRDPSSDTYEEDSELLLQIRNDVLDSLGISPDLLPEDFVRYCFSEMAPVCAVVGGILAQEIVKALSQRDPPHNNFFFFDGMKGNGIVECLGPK
T6 sequence (Q9UBT2 whole entry): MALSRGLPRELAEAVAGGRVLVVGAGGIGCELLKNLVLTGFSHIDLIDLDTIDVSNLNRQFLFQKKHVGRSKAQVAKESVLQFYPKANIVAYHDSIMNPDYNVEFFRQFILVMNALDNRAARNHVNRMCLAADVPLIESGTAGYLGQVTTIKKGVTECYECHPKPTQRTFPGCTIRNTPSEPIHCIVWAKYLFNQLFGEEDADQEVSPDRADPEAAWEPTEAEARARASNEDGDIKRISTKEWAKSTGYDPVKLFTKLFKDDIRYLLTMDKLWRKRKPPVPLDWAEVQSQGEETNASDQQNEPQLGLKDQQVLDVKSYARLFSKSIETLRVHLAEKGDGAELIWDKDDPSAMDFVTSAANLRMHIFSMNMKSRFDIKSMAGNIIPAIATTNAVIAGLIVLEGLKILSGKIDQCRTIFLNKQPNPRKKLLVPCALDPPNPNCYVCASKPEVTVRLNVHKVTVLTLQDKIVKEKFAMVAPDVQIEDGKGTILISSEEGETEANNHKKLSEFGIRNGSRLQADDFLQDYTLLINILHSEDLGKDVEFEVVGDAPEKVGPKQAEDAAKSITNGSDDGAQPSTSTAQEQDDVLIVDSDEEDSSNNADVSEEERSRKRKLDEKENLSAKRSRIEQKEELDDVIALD

On to `Cc1ccccc1CO/N=C/c1[nH]ncc1Br`, for which the EC50 (in general, the concentration needed to bring the measured effect to its halfway point) is reported as > 55.7 µM (not active) in assay [1], > 195 µM (not active) in assay [2] and > 55.7 µM (not active) in assay [3].

`O=C(N=Nc1c(O)[nH]c2ccccc12)c1cc(-c2cccs2)[nH]n1`: the IC50 (usually the concentration that inhibits the measured activity by half) in [4] is 28.8 µM (active); in assay [5], 11.5 µM (active).

On to `Cc1ccc(S(=O)(=O)NCC(=O)OCC(=O)Nc2ncc(Cl)cc2Cl)cc1`, for which the IC50 is 71.1 µM (inactive) on Bcl-2-like protein 10 and > 50 µM (inactive) on Coagulation factor XII.

As to `O=[N+]([O-])c1ccc(/C=N/n2c(CO)nc3ccccc32)s1`, the EC50 in assay [6] is 42 µM (active); in [9] it was 0.568 µM (active). In addition, the AC50 (as a rule, the midpoint of the concentration-response curve, whichever way the signal moves) was 121 µM (active) in the assay on Escherichia coli, 4.91 µM (active) in the assay with INS1 and 1.97 µM (active) in assay [10]. Besides, the CC50 (in general, the concentration at which the toxic effect on the cells reaches its halfway point) in assay [7] was 14.7 µM (active); in assay [8], 32.4 µM (active); in assay [11], > 20 µM (active). For the same compound, the IC50 in the assay “cells” is 1.51 µM (active).

For the compound `C[N+]1(CC2COC3(CCCCC3)O2)CCCCC1` (centres undefined), the results for the IC50 in [4], in [12] and in assay [5] were 6.05 µM (active), 8.39 µM (active) and > 100 µM (inactive), respectively.

For `CCCCCCCCCCn1ccc(=N)cc1`, the EC50 in assay [13] was 8.51 µM (active); in assay [15], 0.055 µM (active); in assay [16], 10.3 µM (active); in assay [17], 22.5 µM (active); in assay [18], 8.93 µM (active). Further, the IC50 in assay [14] is > 80 µM (inactive). In addition, the CC50 in assay [7] is 11.4 µM (active); in [8], 1.57 µM (active); in assay [11], 7.25 µM (active). In addition, the AC50 in the assay on INS1 was 0.471 µM (active).

Consider `CN(C)c1cccc(C(=O)OCc2cc(=O)oc3cc(O)ccc23)c1`, for which the IC50 on Bcl-2-like protein 10 was 62.4 µM (inactive); on SUMO-activating enzyme [19] it was 22.6 µM (active); at SUMO-activating enzyme [20] it was 5.73 µM (active).

As to `N#CC(c1ccc(F)cc1)c1ccc(C(=O)c2ccccc2)cc1` (centres undefined), in assay [21], the AC50 was > 100 µM (inactive).

On to `C[C@]12CCC[C@H](O1)[C@H]([C@@H](O)c1ccccc1)O2`, for which the AC50 in assay [21] is 54 µM (active).
